The record followed here is patent US8415351B2 (priority 2007, dated 2013).

Read-outs that look alike come from different tables or passages of the source. Where only a bound is given, the exact number is not on record here.

For test [1], the target named is T1, HCV polymerase 1A (Δ21 NS5B, H77) (Hepatitis C virus genotype 1a, UniProt P27958).
T1 construct: 20 to 50 nM Δ21 NS5B
Briefly: biochemical. In outline:
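Incorporation of 1 μM ^3H-UTP, with 20 μM each of CTP and ATP on 5 nM template RNA, ran 2–4 h at room temperature. Spermine-precipitated product was filtered and scintillation-counted. IC50 came from tight-binding non-linear regression of cpm against inhibitor concentration.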

For test [2], the target named is T2, HCV polymerase 1B (Δ21 NS5B, BK) (Hepatitis C virus genotype 1b, UniProt P26663).
T2 construct: 20 to 50 nM Δ21 NS5B
T2 sequence (P26663 2420-2989, stated change not applied): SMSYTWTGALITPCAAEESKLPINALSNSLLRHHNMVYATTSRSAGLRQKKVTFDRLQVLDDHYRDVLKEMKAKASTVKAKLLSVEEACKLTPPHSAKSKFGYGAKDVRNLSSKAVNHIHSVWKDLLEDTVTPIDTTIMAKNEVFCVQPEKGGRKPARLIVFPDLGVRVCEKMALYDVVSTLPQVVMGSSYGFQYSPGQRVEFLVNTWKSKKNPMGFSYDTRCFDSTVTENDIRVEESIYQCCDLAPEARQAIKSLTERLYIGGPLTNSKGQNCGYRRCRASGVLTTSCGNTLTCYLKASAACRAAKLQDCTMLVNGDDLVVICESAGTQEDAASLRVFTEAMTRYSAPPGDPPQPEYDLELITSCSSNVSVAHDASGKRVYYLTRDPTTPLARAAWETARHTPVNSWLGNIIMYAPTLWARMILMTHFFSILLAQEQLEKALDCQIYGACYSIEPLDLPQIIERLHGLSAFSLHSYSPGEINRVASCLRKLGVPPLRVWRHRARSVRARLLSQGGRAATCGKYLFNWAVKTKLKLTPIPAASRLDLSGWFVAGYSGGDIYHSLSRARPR
Briefly: biochemical. In outline:
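Δ21 NS5B (genotype 1b, BK […]) preincubated 15 min RT with inhibitor, 2 mM MnCl2, pH 7.4, 60–125 μM GTP; started with 20 μM CTP/ATP, 1 μM 3H-UTP, 5 nM template RNA, run 2–4 h RT. Spermine-precipitated RNA filter-captured, scintillation counted; IC50 from tight-binding (Morrison) fit.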

The subject of test [3] is genotype 1a-H77 subgenomic replicon cell line. The test is described as follows: microbe, parasite or virus in culture. The class given is cell-based, HCV. As to conditions: read-out: EC50 1a.
Test [4] deals with genotype 1b-Con1 subgenomic replicon cell line. Briefly: microbe, parasite or virus in culture. It is filed as cell-based, HCV. The settings on record: read-out: EC50 1b.

T1 sequence (P27958 2421-2990, stated change not applied): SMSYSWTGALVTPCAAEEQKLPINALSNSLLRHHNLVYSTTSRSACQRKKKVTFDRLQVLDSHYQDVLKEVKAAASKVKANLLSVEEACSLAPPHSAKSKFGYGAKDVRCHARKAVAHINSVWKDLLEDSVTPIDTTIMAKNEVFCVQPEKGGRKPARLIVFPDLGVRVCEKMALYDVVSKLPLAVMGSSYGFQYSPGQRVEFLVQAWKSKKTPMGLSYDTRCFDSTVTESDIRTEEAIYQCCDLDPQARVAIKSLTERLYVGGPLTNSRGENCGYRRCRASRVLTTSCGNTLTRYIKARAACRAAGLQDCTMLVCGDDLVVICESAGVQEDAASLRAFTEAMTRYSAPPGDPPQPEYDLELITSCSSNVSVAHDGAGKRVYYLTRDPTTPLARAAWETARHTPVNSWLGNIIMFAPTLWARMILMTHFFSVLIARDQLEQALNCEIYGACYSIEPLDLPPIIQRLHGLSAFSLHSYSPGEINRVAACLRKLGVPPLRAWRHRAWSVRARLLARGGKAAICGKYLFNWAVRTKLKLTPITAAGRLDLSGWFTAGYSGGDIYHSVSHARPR

Usually IC50 stands for the concentration at which inhibition is half-maximal. The EC50 is the concentration at which the effect is half-maximal. `COc1c(-c2cccc(/C=N/NS(C)(=O)=O)c2)cc(N2CCC(=O)NC2=O)cc1C(C)(C)C` [IA-L0-1.7, (E)-N′-((3′-tert-butyl-5′-(2,4-dioxotetrahydropyrimidin-1(2H)-yl)-2′-methoxybiphenyl-3-yl)methylene)methanesulfonohydrazide]: the IC50 was > 1000 nM in test [1] (IC50 1a) and 100 to 1000 nM in test [2]. In addition, the EC50 in test [3] (Hepatitis C virus) and in test [4] (Hepatitis C virus) was > 1000 nM in each case.
As to `COc1c(-c2cccc(/C(C)=N\NS(C)(=O)=O)c2)cc(N2CCC(=O)NC2=O)cc1C(C)(C)C` [IA-L0-1.8, (Z)—N′-(1-(3′-tert-butyl-5′-(2,4-dioxotetrahydropyrimidin-1(2H)-yl)-2′-methoxybiphenyl-3-yl)ethylidene)methanesulfonohydrazide], the half-maximal inhibitory concentration (IC50) in test [1] (IC50 1a) and in test [2] was 100 to 1000 nM in each case. For the same molecule, the EC50 in test [3] (Hepatitis C virus) and in test [4] (Hepatitis C virus) was > 1000 nM each time.
Consider `COc1c(-c2ncc(-c3cccc(NS(C)(=O)=O)c3)o2)cc(N2CCC(=O)NC2=O)cc1C(C)(C)C` [IA-L0-1.9, N-(3-(2-(3-tert-butyl-5-(2,4-dioxotetrahydropyrimidin-1(2H)-yl)-2-methoxyphenyl)oxazol-5-yl)phenyl)methanesulfonamide], for which the results for the IC50 in test [1] (IC50 1a) and in test [2] were 10 to 100 nM and 100 to 1000 nM, respectively. The EC50 in test [3] (Hepatitis C virus) was > 1000 nM; in test [4] (Hepatitis C virus), 100 to 1000 nM.
As to `COc1c(/C=C\c2ccc(NS(C)(=O)=O)cc2)cc(N2CCC(=O)NC2=O)cc1C(C)(C)C` [IA-L1-1.10, (Z)-N-(4-(3-tert-butyl-5-(2,4-dioxotetrahydropyrimidin-1(2H)-yl)-2-methoxystyryl)phenyl)methanesulfonamide], the IC50 in test [1] (IC50 1a) and in test [2] was 10 to 100 nM each time. Also, the EC50 in test [3] (Hepatitis C virus) and in test [4] (Hepatitis C virus) was 10 to 100 nM throughout.
Regarding `COc1c(/C=C\c2ccc(NS(C)(=O)=O)cc2)cc(N2CCC(=O)NC2=O)cc1C(C)(C)C` [IA-L1-1.20, (Z)—N-(4-(3-tert-butyl-5-(2,4-dioxotetrahydropyrimidin-1(2H)-yl)-2-methoxystyryl)phenyl)methanesulfonamide], the IC50 was < 10 nM in test [1] (IC50 1a) and 10 to 100 nM in test [2] (read-out: IC50 1b, HCV polymerase 1b). Further, the EC50 in test [3] and in test [4] was 10 to 100 nM in each case.
`COc1cc(NS(C)(=O)=O)ccc1/C=C/c1cc(N2CCC(=O)NC2=O)cc(C(C)(C)C)c1OC` [IA-L1-1.27, N-(4-{(E)-2-[3-tert-Butyl-5-(dioxo-tetrahydro-pyrimidin-1-yl)-2-methoxy-phenyl]-vinyl}-3-methoxy-phenyl)-methanesulfonamide]: the IC50 is < 10 nM in test [1] (read-out: IC50 1a) and 10 to 100 nM in test [2] (HCV polymerase 1b, read-out: IC50 1b). Besides, the half-maximal effective concentration (EC50) was 10 to 100 nM in test [3] (genotype 1a-H77 replicon, luciferase reporter) and < 10 nM in test [4] (genotype 1b-Con1 replicon, luciferase reporter).
For `CC(C)(C)c1cc(C#Cc2ccc(NS(C)(=O)=O)cc2)cc(N2CCC(=O)NC2=O)c1` [IA-L2-1.1, N-(4-((3-tert-butyl-5-(2,4-dioxotetrahydropyrimidin-1(2H)-yl)phenyl)ethynyl)phenyl)-methanesulfonamide], the half-maximal inhibitory concentration (IC50) was 10 to 100 nM in test [1] (IC50 1a) and < 10 nM in test [2]. Also, the results for the EC50 in test [3] (Hepatitis C virus) and in test [4] (Hepatitis C virus) were 100 to 1000 nM and 10 to 100 nM, respectively.
Regarding `Cc1cc(NS(C)(=O)=O)ccc1C#Cc1cc(N2CCC(=O)NC2=O)cc(C(C)(C)C)c1` [IA-L2-1.2, N-(4-((3-tert-butyl-5-(2,4-dioxotetrahydropyrimidin-1(2H)-yl)phenyl)ethynyl)-3-methyl-phenyl)methanesulfonamide], the IC50 in test [1] (IC50 1a) and in test [2] was < 10 nM throughout. For the same molecule, the EC50 in test [3] (Hepatitis C virus) and in test [4] (Hepatitis C virus) was 10 to 100 nM each time.
On to `CC(C)(C)c1cc(C#Cc2ccc(NS(C)(=O)=O)cc2Cl)cc(N2CCC(=O)NC2=O)c1` [IA-L2-1.3, N-(4-((3-tert-butyl-5-(2,4-dioxotetrahydropyrimidin-1(2H)-yl)phenyl)ethynyl)-3-chlorophenyl)methanesulfonamide], for which the half-maximal inhibitory concentration (IC50) in test [1] (IC50 1a) and in test [2] was < 10 nM each time. The EC50 is 10 to 100 nM in test [3] (Hepatitis C virus) and < 10 nM in test [4] (Hepatitis C virus).
For the molecule `COc1c(C#Cc2ccccc2)cc(N2CCC(=O)NC2=O)cc1C(C)(C)C` [IA-L2-1.4, 1-(3-tert-butyl-4-methoxy-5-(phenylethynyl)phenyl)dihydropyrimidine-2,4(1H,3H)-dione], the concentration for half-maximal inhibition (IC50) in test [1] (IC50 1a) and in test [2] was 100 to 1000 nM in each case. Moreover, the EC50 in test [3] (Hepatitis C virus) and in test [4] (Hepatitis C virus) was 100 to 1000 nM throughout.
With `COc1c(C#Cc2cccc(NS(C)(=O)=O)c2)cc(N2CCC(=O)NC2=O)cc1C(C)(C)C` [IA-L2-1.7, N-(3-((3-tert-butyl-5-(2,4-dioxotetrahydropyrimidin-1(2H)-yl)-2-methoxyphenyl)ethynyl)phenyl)methanesulfonamide], the IC50 in test [1] (IC50 1a) and in test [2] was 10 to 100 nM each time. Also, the EC50 in test [3] (Hepatitis C virus) was > 1000 nM; in test [4] (Hepatitis C virus) it was 100 to 1000 nM.
As for `COc1c(C#Cc2ccc(NS(C)(=O)=O)cc2)cc(N2CCC(=O)NC2=O)cc1C(C)(C)C` [IA-L2-1.8, N-(4-((3-tert-butyl-5-(2,4-dioxotetrahydropyrimidin-1(2H)-yl)-2-methoxyphenyl)ethynyl)-phenyl)methanesulfonamide], the IC50 in test [1] (IC50 1a) and in test [2] was < 10 nM each time. The EC50 was 10 to 100 nM in test [3] (Hepatitis C virus) and < 10 nM in test [4] (Hepatitis C virus).
For `COc1c(C#Cc2ccc(NS(C)(=O)=O)cc2C)cc(N2CCC(=O)NC2=O)cc1C(C)(C)C` [IA-L2-1.9, N-(4-((3-tert-butyl-5-(2,4-dioxotetrahydropyrimidin-1(2H)-yl)-2-methoxyphenyl)ethynyl)-3-methylphenyl)methanesulfonamide], the IC50 in test [1] (IC50 1a) and in test [2] was < 10 nM each time. In addition, the EC50 in test [3] (Hepatitis C virus) and in test [4] (Hepatitis C virus) was < 10 nM throughout.
For the molecule `COc1c(C#Cc2ccc(NS(C)(=O)=O)c(C)c2)cc(N2CCC(=O)NC2=O)cc1C(C)(C)C` [IA-L2-1.10, N-(4-((3-tert-butyl-5-(2,4-dioxotetrahydropyrimidin-1(2H)-yl)-2-methoxyphenyl)ethynyl)-2-methylphenyl)methanesulfonamide], the IC50 in test [1] (IC50 1a) and in test [2] was 10 to 100 nM in each case. The EC50 lay in the range of 100 to 1000 nM in test [3] (Hepatitis C virus) and 10 to 100 nM in test [4] (Hepatitis C virus).
Take `CCc1cc(NS(C)(=O)=O)ccc1C#Cc1cc(N2CCC(=O)NC2=O)cc(C(C)(C)C)c1OC` [IA-L2-1.11, N-(4-((3-tert-butyl-5-(2,4-dioxotetrahydropyrimidin-1(2H)-yl)-2-methoxyphenyl)ethynyl)-3-ethylphenyl)methanesulfonamide]: the IC50 in test [1] (IC50 1a) is < 10 nM; in test [2] it was 10 to 100 nM. In addition, the EC50 in test [3] (Hepatitis C virus) and in test [4] (Hepatitis C virus) was < 10 nM each time.
Consider `COc1c(C#Cc2ccc(NS(C)(=O)=O)cc2F)cc(N2CCC(=O)NC2=O)cc1C(C)(C)C` [IA-L2-1.12, N-(4-((3-tert-butyl-5-(2,4-dioxotetrahydropyrimidin-1(2H)-yl)-2-methoxyphenyl)ethynyl)-3-fluorophenyl)methanesulfonamide], for which the IC50 in test [1] (IC50 1a) and in test [2] was < 10 nM in each case. Further, the EC50 in test [3] (Hepatitis C virus) is 10 to 100 nM; in test [4] (Hepatitis C virus), < 10 nM.
On to `COc1c(C#Cc2ccc(NS(C)(=O)=O)c(F)c2)cc(N2CCC(=O)NC2=O)cc1C(C)(C)C` [IA-L2-1.13, N-(4-((3-tert-butyl-5-(2,4-dioxotetrahydropyrimidin-1(2H)-yl)-2-methoxyphenyl)ethynyl)-2-fluorophenyl)methanesulfonamide], for which the IC50 in test [1] (IC50 1a) and in test [2] was < 10 nM in each case. Further, the values for the EC50 in test [3] (Hepatitis C virus) and in test [4] (Hepatitis C virus) were 100 to 1000 nM and 10 to 100 nM, respectively.
For the molecule `COc1c(C#Cc2ccc(NS(C)(=O)=O)cc2Cl)cc(N2CCC(=O)NC2=O)cc1C(C)(C)C` [IA-L2-1.14, N-(4-((3-tert-butyl-5-(2,4-dioxotetrahydropyrimidin-1(2H)-yl)-2-methoxyphenyl)ethynyl)-3-chlorophenyl)methanesulfonamide], the IC50 in test [1] (IC50 1a) and in test [2] was < 10 nM throughout. Moreover, the EC50 in test [3] (Hepatitis C virus) and in test [4] (Hepatitis C virus) was < 10 nM in each case.
For the molecule `COc1c(C#Cc2ccc(NS(C)(=O)=O)c(Cl)c2)cc(N2CCC(=O)NC2=O)cc1C(C)(C)C` [IA-L2-1.15, N-(4-((3-tert-butyl-5-(2,4-dioxotetrahydropyrimidin-1(2H)-yl)-2-methoxyphenyl)ethynyl)-2-chlorophenyl)methanesulfonamide], the IC50 in test [1] (IC50 1a) and in test [2] was 10 to 100 nM throughout. For the same molecule, the EC50 in test [3] (Hepatitis C virus) and in test [4] (Hepatitis C virus) was 100 to 1000 nM in each case.
`COc1cc(NS(C)(=O)=O)ccc1C#Cc1cc(N2CCC(=O)NC2=O)cc(C(C)(C)C)c1OC` [IA-L2-1.16, N-(4-((3-tert-butyl-5-(2,4-dioxotetrahydropyrimidin-1(2H)-yl)-2-methoxyphenyl)ethynyl)-3-methoxyphenyl)methanesulfonamide]: the values for the IC50 in test [1] (IC50 1a) and in test [2] were < 10 nM and 10 to 100 nM, respectively. Besides, the EC50 was 10 to 100 nM in test [3] (Hepatitis C virus) and < 10 nM in test [4] (Hepatitis C virus).
